Test results from patent US20110136145A1, “METHODS FOR PROMOTING FUSION AND REPROGRAMMING OF SOMATIC CELLS” (THE JOHNS HOPKINS UNIVERSITY, priority 2008, published 2011).
“Also recorded” adds a separate entry of the source.

Molecular target: T1, Jhdm2a (Homo sapiens, UniProt Q9Y4C1)
T1 construct: expressed in transfected cells; host or cells: 293T cells
T1 sequence (Q9Y4C1 1-1321): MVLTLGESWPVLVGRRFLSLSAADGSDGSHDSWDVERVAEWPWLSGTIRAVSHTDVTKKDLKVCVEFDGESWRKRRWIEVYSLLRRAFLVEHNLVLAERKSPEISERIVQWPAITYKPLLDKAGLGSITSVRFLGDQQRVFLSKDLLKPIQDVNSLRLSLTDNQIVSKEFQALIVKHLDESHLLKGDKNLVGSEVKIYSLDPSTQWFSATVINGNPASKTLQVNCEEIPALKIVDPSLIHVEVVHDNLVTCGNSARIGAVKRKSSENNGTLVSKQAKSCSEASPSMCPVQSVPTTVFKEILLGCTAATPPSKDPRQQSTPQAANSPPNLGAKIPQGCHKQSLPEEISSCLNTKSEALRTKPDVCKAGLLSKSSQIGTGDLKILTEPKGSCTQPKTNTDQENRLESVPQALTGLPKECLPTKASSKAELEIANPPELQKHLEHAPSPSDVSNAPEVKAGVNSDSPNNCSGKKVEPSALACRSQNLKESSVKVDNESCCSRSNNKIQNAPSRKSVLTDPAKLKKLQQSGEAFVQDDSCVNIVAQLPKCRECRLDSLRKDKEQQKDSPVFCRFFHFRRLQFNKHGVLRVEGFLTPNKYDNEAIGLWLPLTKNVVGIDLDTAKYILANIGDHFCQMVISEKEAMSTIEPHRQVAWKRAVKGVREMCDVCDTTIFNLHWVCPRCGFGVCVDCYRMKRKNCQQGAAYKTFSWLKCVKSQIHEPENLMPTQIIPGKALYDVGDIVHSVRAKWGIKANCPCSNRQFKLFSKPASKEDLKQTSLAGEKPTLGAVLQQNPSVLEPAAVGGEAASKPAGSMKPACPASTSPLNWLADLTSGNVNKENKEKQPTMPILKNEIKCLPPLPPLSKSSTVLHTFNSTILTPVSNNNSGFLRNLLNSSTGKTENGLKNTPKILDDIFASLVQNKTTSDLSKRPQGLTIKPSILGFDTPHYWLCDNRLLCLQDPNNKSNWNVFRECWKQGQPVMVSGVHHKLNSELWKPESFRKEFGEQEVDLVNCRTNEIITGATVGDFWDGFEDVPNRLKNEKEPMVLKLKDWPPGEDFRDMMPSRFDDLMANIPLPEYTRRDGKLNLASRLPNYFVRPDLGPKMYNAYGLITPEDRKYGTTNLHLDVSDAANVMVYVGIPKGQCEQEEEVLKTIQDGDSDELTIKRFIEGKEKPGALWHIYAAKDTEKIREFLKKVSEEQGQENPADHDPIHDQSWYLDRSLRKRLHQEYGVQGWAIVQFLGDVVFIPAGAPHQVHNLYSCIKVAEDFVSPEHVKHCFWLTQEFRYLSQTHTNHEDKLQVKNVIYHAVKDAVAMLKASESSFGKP
Assay: Immunolabeling assay of Jhdm2a-induced H3K9 demethylation in 293T cells
Format: cell-based
Details: 10 μM; 293T cells transfected with Jhdm2a-EGFP; vs DMSO
Source text: (A) Inhibition of Jhdm2a induced histone demethylation by DMOG. Blocking effects of DMOG on Jhdm2a were examined in 293T cells transfected with a plasmid expressing Jhdm2a-EGFP fusion protein. In control cells treated with DMSO, histone 3 lysine 9 dimethylation (H3K9diM) immunostaining signal was lost in Jhdm2a-GFP transfected cells (arrows). […] DAPI labels all cell nuclei. Scale bar: 20 μm. (B-D) show DMOG attenuates ESC-induced reactivation of Oct4 expression from adult NSCs. […] Representative plots from multiple experiments are shown (B). Reprogramming frequencies from multiple experiments were quantified (C) for fusion population with the 48-hour treatment of DMSO or DMOG. Data represent mean±SEM. (n=3; ** P<0.01, Student's t-test). Shown in (D) is the cumulative distribution plot of DsRed+ population with graded GFP fluorescence intensities for comparison of the reprogramming efficacy in the presence of DMSO or DMOG (n=3 experiments; * P<0.01, Kolmogorov-Smirnov test).
To confirm the blocking effects of DMOG on histone demethylases, an immuno labeling assay previously developed for JHDM2A was used. Overexpression of Jhdm2a in heterologous cell lines led to dramatic loss of H3K9 dimethylation, which was blocked by the DMOG treatment (10 μM FIG. 6A). […]

COC(=O)CNC(=O)C(=O)OC [DMOG, dimethyloxalylglycine]
Jhdm2a-induced loss of H3K9 dimethylation: blocked; also recorded: H3K9 dimethylation signals are present in all cells
